Data published in US20050101595A1, “N-containing cycloalkyl-substituted amino-thiazole derivatives and pharmaceutical compositions for inhibiting cell proliferation and methods for their use” (PFIZER INC., priority 2003, published 2005).
Counter-ions that a name gives are not always drawn. Like-named read-outs stand apart in the source and are kept apart here.

Legend:
CDK2/Cyclin A = CDK2/Cyclin A (Homo sapiens, UniProt P24941); experiment: Inhibition of CDK2/Cyclin A Retinoblastoma Kinase Activity; assay type: biochemical; settings: for CDK2 % Inhibition At 0.03 μM: Table 2; for Ki: apparent Ki, CDK2/proteolyzed cyclin A, Rb fragment substrate, 25 μM ATP
Method in brief: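 Percent inhibition is calculated against DMSO-only wells after subtracting no-enzyme background. The enzyme is human CDK2 complexed with proteolyzed cyclin A, used at 10 nM or 19 nM on an Rb fragment with 25 μM [32/33P]ATP, at pH 7.4 and 30° C.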

HCT-116 cell line = experiment: Inhibition of cell growth, tetrazolium salt (MTT) assay; assay type: cell-based; settings: for HCT-116 % Inhibition at 0.25 μM: 0.25 μM compound; for IC50: Homo sapiens, HCT-116, 120 h, MTT, three to five days, read-out: HCT-116 IC50
Method in brief: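 Growth inhibition by MTT reduction at 540 nm (0.2 mg/mL, 4 h at 37° C, formazan dissolved in DMSO), normalized to cells given only 0.5% v/v DMSO. HCT-116 cultures in McCoy's 5A were dosed 4 h post-plating and kept three to five days at 37° C, 5% CO2.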

[1] = biological target: human CDK4 and genetically truncated (1-264) cyclin D3 (Homo sapiens, UniProt P11802); experiment: Inhibition of CDK4/Cyclin D Retinoblastoma Kinase Activity; assay type: biochemical; settings: for Ki: apparent Ki, CDK4/truncated cyclin D3, Rb fragment substrate, 25 μM ATP
Sequence of human CDK4 and genetically truncated (1-264) cyclin D3 (P11802 whole entry, the tested form may be a part): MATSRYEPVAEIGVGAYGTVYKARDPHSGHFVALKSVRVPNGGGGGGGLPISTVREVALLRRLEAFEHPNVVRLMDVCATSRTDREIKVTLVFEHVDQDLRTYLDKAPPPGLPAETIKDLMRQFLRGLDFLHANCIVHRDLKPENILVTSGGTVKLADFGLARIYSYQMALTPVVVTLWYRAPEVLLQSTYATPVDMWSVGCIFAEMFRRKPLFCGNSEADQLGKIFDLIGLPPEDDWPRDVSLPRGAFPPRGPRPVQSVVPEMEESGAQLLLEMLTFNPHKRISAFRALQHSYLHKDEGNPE
Sequence of human CDK4 and genetically truncated (1-264) cyclin D3 (P30281 1-264 partner): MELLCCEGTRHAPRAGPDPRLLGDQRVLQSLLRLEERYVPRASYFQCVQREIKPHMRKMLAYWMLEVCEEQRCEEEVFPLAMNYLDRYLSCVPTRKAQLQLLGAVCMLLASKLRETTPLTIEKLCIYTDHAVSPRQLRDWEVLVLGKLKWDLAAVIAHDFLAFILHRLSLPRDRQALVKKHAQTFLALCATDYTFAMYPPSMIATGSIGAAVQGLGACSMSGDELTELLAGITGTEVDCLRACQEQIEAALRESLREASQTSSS
Method in brief: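 Apparent Ki values derive from fitting activity at varied inhibitor concentrations to a competitive (or competitive tight-binding) model. Kinase reactions used 5 nM CDK4/cyclin D3(1-264), Rb fragment substrate and 25 μM ATP. Incubation ran 20 min at 30 °C, extended to 60 min under linear conditions for tight binders.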

[2] = 0.1 μM compound, HCT-116, Table 3

Nc1nc(NC2CCN(S(=O)(=O)c3ccc(F)cc3Cl)CC2)sc1C(=O)c1c(F)cccc1F [Example P55]
CDK2 % Inhibition at 0.03 μM (CDK2/Cyclin A; 0.03 μM compound, Table 3): 43%
HCT-116 % Inhibition at 0.1 μM (HCT-116 cell line; [2]): 20%
HCT-116 % Inhibition at 0.25 μM (HCT-116 cell line; HCT-116, Table 3): 25%
CDK4 % Inhibition at 0.03 μM ([1]; 0.03 μM compound, Table 3): 52%

Cc1cccc(C(=O)N2CCC(Nc3nc(N)c(C(=O)c4c(F)cccc4F)s3)CC2)c1C [Example R125]
CDK2 % Inhibition at 0.03 μM (CDK2/Cyclin A; at 0.03 μM): 18%
HCT-116 % Inhibition at 0.1 μM (HCT-116 cell line; HCT-116 cells, at 0.1 μM): 0%
HCT-116 5 Inhibition at 0.25 μM (HCT-116 cell line; HCT-116 cells): 42
CDK4 % Inhibition at 0.03 μM ([1]; at 0.03 μM): 33%

CCOC(=O)c1ccc(NC(=O)N2CCC(Nc3nc(N)c(C(=O)c4c(F)cccc4F)s3)CC2)cc1 [Example O22]
CDK2 % Inhibition At 0.03 μM (CDK2/Cyclin A; 0.03 μM compound): 34%
HCT-116 % Inhibition at 0.25 μM (HCT-116 cell line; HCT-116, Table 2): 25%
CDK4 % Inhibition at 0.03 μM ([1]; 0.03 μM compound, Table 2): 13%

CC1C=CC(C)N1CCS(=O)(=O)N1CCC(Nc2nc(N)c(C(=O)c3c(F)cccc3F)s2)CC1 (mixture of isomers) [Example K27, (4-Amino-2-{1-[2-(cis/trans-2,5-dimethyl-2,5-dihydro-pyrrol-1-yl)-ethanesulfonyl]-piperidin-4-ylamino}-thiazol-5-yl)-(2,6-difluoro-phenyl)-methanone Trifluoroacetic Acid Salt.]
Ki (CDK2/Cyclin A): 11 nM
IC50 (HCT-116 cell line; first HCT-116 column (c4)): 230 nM
IC50 (HCT-116 cell line; second HCT-116 column (c5)): 800 nM
Ki [1]: 3.5 nM

COC(=O)NC(=O)N1CCC(Nc2nc(N)c(C(=O)c3c(F)cccc3F)s2)CC1 [Example O61]
CDK2 % Inhibition At 0.03 μM (CDK2/Cyclin A; 0.03 μM compound): 33%
HCT-116 % Inhibition at 0.25 μM (HCT-116 cell line; HCT-116, Table 2): 38%
CDK4 % Inhibition at 0.03 μM ([1]; 0.03 μM compound, Table 2): 12%

CN(C)c1ccc(N=Nc2ccc(S(=O)(=O)N3CCC(Nc4nc(N)c(C(=O)c5c(F)cccc5F)s4)CC3)cc2)cc1 [Example P18]
CDK2 % Inhibition at 0.03 μM (CDK2/Cyclin A; 0.03 μM compound, Table 3): −20%
HCT-116 % Inhibition at 0.1 μM (HCT-116 cell line; [2]): 20%
HCT-116 % Inhibition at 0.25 μM (HCT-116 cell line; HCT-116, Table 3): 36%
CDK4 % Inhibition at 0.03 μM ([1]; 0.03 μM compound, Table 3): 6%

Nc1nc(NC2CCN(S(=O)(=O)c3ccc(Sc4ccncc4)cc3)CC2)sc1C(=O)c1c(F)cccc1F [Example P87]
CDK2 % Inhibition at 0.03 μM (CDK2/Cyclin A; 0.03 μM compound, Table 3): −25%
HCT-116 % Inhibition at 0.1 μM (HCT-116 cell line; [2]): 9%
HCT-116 % Inhibition at 0.25 μM (HCT-116 cell line; HCT-116, Table 3): 22%
CDK4 % Inhibition at 0.03 μM ([1]; 0.03 μM compound, Table 3): −5%

COc1ccc(C=CC(=O)N2CCC(Nc3nc(N)c(C(=O)c4c(F)cccc4F)s3)CC2)c(Cl)c1OC [Example R61]
CDK2 % Inhibition at 0.03 μM (CDK2/Cyclin A; at 0.03 μM): 63%
HCT-116 % Inhibition at 0.1 μM (HCT-116 cell line; HCT-116 cells, at 0.1 μM): 0%
HCT-116 5 Inhibition at 0.25 μM (HCT-116 cell line; HCT-116 cells): 37
CDK4 % Inhibition at 0.03 μM ([1]; at 0.03 μM): 59%

Nc1nc(NC2CCN(S(=O)(=O)c3ccc(CCCN4CCCC4)nc3)CC2)sc1C(=O)c1c(F)cccc1F [Example I13, 1-(4-Amino-2-{1-[6-(3-pyrrolidin-1-yl-propyl)-pyridine-3-sulfonyl]-piperidin-4-ylamino}-thiazol-5-yl)-1-(2,6-difluoro-phenyl)-methanone Trifluoroacetic Acid Salt]
Ki (CDK2/Cyclin A): 1.3 nM
IC50 (HCT-116 cell line; first HCT-116 column (c4)): 280 nM
IC50 (HCT-116 cell line; second HCT-116 column (c5)): 600 nM
Ki [1]: 0.45 nM

Nc1nc(NC2CCN(C(=O)C3(c4ccccc4)CC3)CC2)sc1C(=O)c1c(F)cccc1F [Example R90]
CDK2 % Inhibition at 0.03 μM (CDK2/Cyclin A; at 0.03 μM): −2%
HCT-116 % Inhibition at 0.1 μM (HCT-116 cell line; HCT-116 cells, at 0.1 μM): 0%
HCT-116 5 Inhibition at 0.25 μM (HCT-116 cell line; HCT-116 cells): 19
CDK4 % Inhibition at 0.03 μM ([1]; at 0.03 μM): −6%

Nc1nc(NC2CCN(S(=O)(=O)c3ccc(CCNc4ccccc4O)nc3)CC2)sc1C(=O)c1c(F)cccc1F [Example N1, [4-Amino-2-(1-{6-[2-(2-hydroxy-phenylamino)-ethyl]-pyridine-3-sulfonyl}-piperidin-4-ylamino)-thiazol-5-yl]-(2,6-difluoro-phenyl)-methanone Trifluoroacetic Acid Salt.]
Ki (CDK2/Cyclin A): 0.28 nM
IC50 (HCT-116 cell line; first HCT-116 column (c4)): 860 nM
IC50 (HCT-116 cell line; second HCT-116 column (c5)): 1600 nM
Ki [1]: 0.49 nM

CC(C)(C)NC(=O)N1CCC(Nc2nc(N)c(C(=O)c3c(F)cccc3F)s2)CC1 [Example O27]
CDK2 % Inhibition At 0.03 μM (CDK2/Cyclin A; 0.03 μM compound): 38%
HCT-116 % Inhibition at 0.25 μM (HCT-116 cell line; HCT-116, Table 2): 24%
CDK4 % Inhibition at 0.03 μM ([1]; 0.03 μM compound, Table 2): 9%

Nc1nc(NC2CCN(C(=O)c3ccccc3-c3ccccc3)CC2)sc1C(=O)c1c(F)cccc1F [Example R123]
CDK2 % Inhibition at 0.03 μM (CDK2/Cyclin A; at 0.03 μM): 5%
HCT-116 % Inhibition at 0.1 μM (HCT-116 cell line; HCT-116 cells, at 0.1 μM): 0%
HCT-116 5 Inhibition at 0.25 μM (HCT-116 cell line; HCT-116 cells): 38
CDK4 % Inhibition at 0.03 μM ([1]; at 0.03 μM): 39%
